From US6878711B2, “Indole derivatives as PDE5-inhibitors” (Lilly Icos LLC, priority 2000, dated 2005) come the findings set out here.

For series [1], the target named is human recombinant PDE5 (Homo sapiens, UniProt O76074). The series is described as follows: Inhibitory effect on cGMP-PDE (one-step assay, 8-[H3]-cGMP).
Series [2] addresses T1, PDE5 (bovine aorta) (Bos taurus, UniProt Q28156).
T1 construct: from tissue; host or cells: bovine aorta
Briefly: Inhibitory effect on cGMP-PDE, enzyme from bovine aorta. The class given is biochemical. Particulars: vs. bovine aorta. The text has this: Biophys. Acta, 384, 430 (1975).

SMILES strings stand for the structures.

For orientation: melting point means the temperature, or range, at which the solid turns liquid. As for `CN1CC(=S)N2[C@H](c3ccc4c(c3)OCO4)c3[nH]c4ccccc4c3C[C@@H]2C1=S`, the melting point is 158 to 162 °C.
Broadly, the IC50 is the concentration that gives 50% inhibition. As to `CN1CCN2[C@H](c3ccc4c(c3)OCO4)c3[nH]c4ccccc4c3C[C@@H]2C1=O` [Example 1, (6R,12aR)-6-Benzo[1,3]dioxol-5-yl-2-methyl-3,4,6,7,12,12a-hexahydro-2H-pyrazino[1′,2′:1,6]pyrido[3,4-b]indole-1-one], in series [1], the IC50 came to 54 nM.
On the same count and under the same terms, then `CN1CCN2[C@@H](c3ccc4c(c3)OCO4)c3[nH]c4ccccc4c3C[C@@H]2C1=O` [Example 2, (6S,12aR)-6-Benzo[1,3]dioxol-5-yl-2-methyl-3,4,6,7,12,12a-hexahydro-2H-pyrazino-[1′2′:1,6]pyrido[3,4-b]indol-1-one], with 575 nM.
`CN1CCN2[C@@H](c3ccc4c(c3)OCO4)c3[nH]c4ccccc4c3C[C@H]2C1=O` [Example 3] displayed an IC50 in series [2] of 100 nM.
On to `O=C1CNC[C@H]2Cc3c([nH]c4ccccc34)[C@@H](c3ccc4c(c3)OCO4)N12` [Example 4], for which the IC50 in series [1] turned out to be 2.3 nM.
Consider `CN1CC(=S)N2[C@H](c3ccc4c(c3)OCO4)c3[nH]c4ccccc4c3C[C@H]2C1=S` [Example 6, (6R,12aS)-6-Benzo[1,3]dioxol-5-yl-2-methyl 2,3,6,7,12,12a-hexahydropyrazino[1′,2′:1,6]pyrido[3,4-b]indole-1,4-dithione], for which the melting point was in the range of 177 to 182 °C.
